According to publication PMC5668067, “Phase I dose-escalation study of the c-Met tyrosine kinase inhibitor SAR125844 in Asian patients with advanced solid tumors, including patients with MET-amplified gastric cancer” (Oncotarget, 2017):
Where two headings read alike, the source gives them in different places.

Assays:
[1] = test system: patients with solid tumors; design: method as in ref 9 = [9]; 9 Angevin E Spitaleri G Hollebecque A De Pas T Soria JC Harnois M Mazuir F Assadourian S De Marinis F A first-in-human (FIH) phase I study of SAR125844, a novel selective MET kinase inhibitor, in pati; details: cited from earlier work
[2] = test system: solid tumors, including MET-amplified gastric cancer; test: phase I antitumor activity (RECIST 1.1); type: in vivo, human
Experimental: Tumor response was evaluated by the Response Evaluation Criteria In Solid Tumors version 1.1, which define complete response as disappearance of all target lesions, partial response and progressive disease as a minimally 30% decrease or 20% increase, respectively, in the sum of diameters of target lesions, and stable disease as neither sufficient shrinkage to qualify for partial response nor sufficient increase to qualify for progressive disease. Tumor burden was assessed from computerized tomography or magnetic resonance imaging scans performed at baseline, at the end of cycle 1, and every 8 weeks thereafter. Patients evaluable for efficacy received at least one cycle of SAR, with a minimum of two infusions, and had undergone efficacy assessment at baseline and once or more after that.
In the dose-expansion cohort, MET amplification in tumor tissue was evaluated by a FISH assay. A tumor was considered MET amplified if ≥ 10% of cells had more than four gene copies of MET and the MET:CEP7 ratio was ≥ 2. Total c-MET protein expression was evaluated by immunohistochemistry, calculating the percentage of tumor cells with an immunohistochemistry score of 2+ or 3+ membrane staining. […] Immunohistochemistry was performed on fresh or archival tumor tissue.

c-Met kinase = molecular target: c-Met kinase; design: method as in PMID 25504634; details: cited from earlier work
[3] = phase I pharmacokinetics in blood (dried blood spot, LC-MS/MS, noncompartmental analysis); type: in vivo, human; details: for fold increase in AUC0–168: 2.19-fold increase in dose (260 to 570 mg/m^2); for Cmax / AUC(0-t) / clearance / Vd / half-life / AUC: human, whole blood (dried blood spot), intravenous; for Cmax: blood; for AUC(0-t): read-out: AUC0–168; for clearance: read-out: CL (converted); for Vd: read-out: Vss; for half-life: read-out: t1/2z (converted)
Experimental: Blood samples for pharmacokinetic analysis were acquired using dried blood-spot technology on days 1 and 22 of cycle 1 at several time points before, during, and after infusion (up to 168 hours after administration). Drug concentrations were determined by a validated method of liquid chromatography and tandem mass spectrometry (limit of quantification 2 ng/mL). Pharmacokinetic parameters were calculated using a noncompartmental analysis and included the maximum observed blood concentration (Cmax), AUC from 0 to infinity, AUC0–168, CL, CL after repeated administrations (CLss), volume of distribution at steady state (Vss), and the half-life associated with the terminal slope (t1/2z).

[4] = dose-expansion cohort (N = 19), 570 mg/m^2
[5] = 260 mg/m2, 260 mg/m^2, cycle 1 Day 1, n = 5, mean ± SD
[6] = 260 mg/m2, 260 mg/m^2, cycle 1 Day 22, N = 2, mean
[7] = 340 mg/m2, 340 mg/m^2, cycle 1 Day 1, N = 2, mean

In the case of `O=C(NCCN1CCOCC1)Nc1nc2ccc(Sc3nnc4ccc(-c5ccc(F)cc5)nn34)cc2s1` [SAR125844], the “recommended dose (RD)” value ([1]; first-in-human study, Western countries, intravenously) is listed as 570 mg/m^2 per week, the tolerability profile ([1]; first-in-human study, doses 50‒740 mg/m^2) is listed as “acceptable tolerability profile” and the antitumor activity ([1]; one patient with lung adenocarcinoma and MET amplification) is listed as “Preliminary evidence of antitumor activity”. For the same compound, the “patients with early disease progression leading to treatment discontinuation in cycle 1” value ([2]; dose-escalation cohort) was 11 patients, the objective responses ([2]; dose-escalation cohort (unselected population, N = 19)) was “No objective responses” and the “median time to tumor progression” value ([2]; dose-escalation cohort, 340 mg/m^2) was 0.9 months. The “median time to tumor progression” value ([2]; dose-escalation cohort, 440 mg/m^2) was 1.7 months, the “patients with stable disease” value ([2]; dose-escalation cohort, after 1 month of treatment) was “seven” and the “patients with stable disease” value ([2]; dose-escalation cohort, after 1 month of treatment, listed as SAR) was 7 patients. For the same compound, the “patients with progressive disease” value [2, 4] was 10 patients, the “patients with stable disease” value [2, 4] was “seven” and the “confirmed partial response / objective response rate” value ([2]; dose-expansion cohort, MET-amplified tumors, 570 mg/m^2, two of 19 patients) was 10.5%. For the same compound, the “patients with unconfirmed partial response” value ([2]; dose-expansion cohort, gastric cancer) was “one”, the “median time to tumor progression” value ([2]; dose-expansion cohort, median (range)) was 0.92 (0.4–9) months and the “median time to tumor progression” value ([2]; gastric cancer subpopulation of dose-expansion cohort, median (range)) was 1.18 (0.4–9) months. The “overall response rate (partial response rate)” value ([2]; gastric cancer subpopulation with MET amplification, two of 14 patients) was 14.3%, the IC50 (c-Met kinase; read-out: half-maximal inhibitory concentration) was 4.2 nM and the Ki (c-Met kinase; read-out: inhibitory constant) was 2.8 nM. For the same compound, the “fold increase in AUC0–168” value ([3]; day 1) was 3.00 fold, the “fold increase in AUC0–168” value ([3]; day 22) was 2.69 fold and the “accumulation between days 1 and 22” value ([3]; four repeated once-weekly infusions) was “no accumulation”. For the same compound, the Cmax ([3]; 260 mg/m2, 260 mg/m^2, cycle 1 Day 1, N = 6, mean ± SD) was 4140 ± 1070 ng/mL, the AUC(0-t) [3, 5] was 11800 ± 2960 ng·h/mL and the clearance [3, 5] was 608 mL/min. For the same compound, the Vd [3, 5] was 232 ± 57.5 L, the half-life [3, 5] was 12.6 ± 6.05 h and the AUC [3, 6] was 12600 ng·h/mL. It also gave a Cmax [3, 6] of 3550 ng/mL, an AUC(0-t) [3, 6] of 12700 ng·h/mL and a clearance [3, 6] of 533 mL/min. The Vd [3, 6] was 186 L, the half-life [3, 6] was 12.6 h and the AUC ([3]; 260 mg/m2, AUC from 0 to infinity, 260 mg/m^2, cycle 1 Day 1, n = 5, mean ± SD) was 11800 ± 2950 ng·h/mL. The AUC [3, 7] was 16400 ng·h/mL, the Cmax [3, 7] was 4290 ng/mL and the AUC(0-t) [3, 7] was 16400 ng·h/mL. It also gave a clearance [3, 7] of 565 mL/min, a Vd [3, 7] of 246 L and a half-life [3, 7] of 12.9 h.
